According to patent US5959145A, “Fatty acid analog enzyme substrates” (priority 1993, dated 1999):

System: wheat germ NMT
Test: in vitro myristoylation assay with partially purified wheat germ NMT
Assay type: biochemical
Conditions: fatty acid or analog at 5 μM, peptide varied; read-out: Km of peptide substrate Gly-Asn-Ala-Ala-Ser-[125I]Tyr-Arg-Arg
Procedure: Myristoyl CoA and fatty acid analog CoA were generated by incubation of the fatty acid or analog with CoA, ATP and CoA ligase. This reaction mixture was added to wheat germ NMT and Gly-Asn-Ala-Ala-Ser- [^125 I]Tyr-Arg-Arg in the presence of 0.03% Triton® X-100. Reaction products were characterized by reverse phase HPLC and gamma counting.
The invention is illustrated in greater detail in the following Examples 1 to 15 by the synthesis and testing of representative compounds of the invention as myristoylating enzyme substrates. Accordingly, the invention is first illustrated in Examples 1 to 5 by the chemical synthesis of a sulfur-containing analog of myristic acid, namely 11-(ethylthio)undecanoicacid, CH3 CH2 --S--(CH2)10 COOH, which is then tested in vitro as a wheat germ NMT substrate. Wheat germ NMT is a protein similar to yeast NMT. The purity and chemical identity of the synthesized compound were examined using ^1 H and ^13 C NMR as well as mass spectroscopy. The assay that was used to characterize the substrate specificity of wheat germ NMT measures the rate of attachment of a radiolabelled fatty acid to an unlabelled peptide. The fatty acid analog synthesized was nonradioactive.
Characterization of Partially Purified Wheat Germ NMT--Assays for NMT activity were performed using a procedure detailed previously by Towler and Glaser, Proc. Natl. Acad. Sci. USA 83, 2812-2816 (1986). Briefly, the in vitro assay measures the transfer of radiolabelled fatty acid from acyl CoA to a synthetic peptide substrate. The acylpeptide product is identified by reverse phase HPLC. Time and enzyme dependence were evaluated by varying the reaction time or the enzyme concentration. […] Fatty acid specificity was examined essentially as described by Towler et al., J. Biol. Chem. 262, 1030-1036 (1987), except that the peptide Gly-Ser-Ser-Lys-Ser-Lys-Pro-Lys rather than Gly-Asn-Ala-Ala-Ala-Ala-Arg-Arg was used to compare palmitate and myristate utilization by wheat germ NMT. This was necessary because of the presence of a large, peptide-independent peak which co-eluted with a palmitoyl-Gly-Asn-Ala-Ala-Ala-Ala-Arg-Arg standard. [^3 H]Palmitate and [^3 H]myristate were used in this comparison. [^14 C]fatty acids were used to compare C-10, C-12 and C-14 chain lengths. Fatty acyl CoA concentrations in these assays were determined by a modification of the method of Hosaka et al., Methods Enzymol. 71, 325-333 (1981).
Characterization of the Fatty Acid Analog--Gly-Asn-Ala-Ala-Ser-[^125 I]Tyr-Arg-Arg as prepared in Example 2, above, was tested in an in vitro myristoylation system which was modified from that used with radiolabelled fatty acids. […] 20-fold more wheat germ NMT (480-fold purified as in Example 3, above) was used for these assays than for assays which employed [^3 H] myristate. […] Double reciprocal plots were generated for the iodinated peptide with both myristic acid and the sulfur analog by altering the peptide concentration in the presence of a constant amount of fatty acid or analog. […] The assays contained 0.03% Triton X-100 to maintain the solubility of the fatty acids.

Compound: CCCCCCCCCCCCCC(=O)O [myristic acid, reference compound]
- Km: 3 µM
